Molecules are shown by their SMILES. pIC50: −log10 of the molar value. Calls of active or inactive are those of the source. No cut-off for these calls is given here.

The subject of assay [1] is NCI-H460. Briefly: Inhibition of DMBA-induced CYP1B1 overexpression in human NCI-H460 cells assessed as increase in SRC level at 5 uM incubated for 24 hrs by densitometry analysis. Format: functional, cell-based.
Assay [2] concerns NCI-H460. As to the kind of experiment: Antiproliferative activity against human taxol resistance human NCI-H460 cells assessed as reduction in cell viability incubated for 24 hrs by MTT assay. Format: functional, cell-based. The note with it: dose 5.0 µM.
The subject of assay [3] is A549. Briefly: Inhibition of DMBA-induced CYP1B1 overexpression in human A549 cells assessed as increase in Vimentin level incubated for 24 hrs by densitometry analysis. Format: functional, cell-based. The note with it: dose 5.0 µM.
Assay [4] relates to A549. As to the kind of experiment: Inhibition of DMBA-induced CYP1B1 overexpression in human A549 cells assessed as increase in FAK level incubated for 24 hrs by densitometry analysis. Format: functional, cell-based. The note with it: dose 5.0 µM.
Assay [5] concerns A549. As to the kind of experiment: Antiproliferative activity against human taxol resistance human A549 cells assessed as reduction in cell viability incubated for 24 hrs by MTT assay. The assay is classed as functional, cell-based. The settings on record: dose 5.0 µM. On the technique in general: Tetrazolium assays rely on reduction of a dye to a coloured formazan, in cell work by metabolically active cells.

Assay [6] deals with NCI-H460. As to the kind of experiment: Inhibition of DMBA-induced AKT overexpression in human taxol resistance NCI-H460 cells at 5 uM incubated for 24 hrs. Format: functional, cell-based.
Assay [7] relates to A549. Briefly: Inhibition of DMBA-induced CYP1B1 overexpression in human A549 cells assessed as increase in SRC level incubated for 24 hrs by densitometry analysis. Format: functional, cell-based. The settings on record: dose 5.0 µM.
Assay [8] concerns NCI-H460. As to the kind of experiment: Inhibition of DMBA-induced CYP1B1 overexpression in human NCI-H460 cells assessed as increase in Paxillin level incubated for 24 hrs by densitometry analysis. The note with it: dose 5.0 µM. Format: functional, cell-based.
Assay [9] has as its system NCI-H460. As to the kind of experiment: Inhibition of DMBA-induced AKT overexpression in human taxol resistance NCI-H460 cells incubated for 24 hrs. The assay is classed as functional, cell-based. The note with it: dose 5.0 µM.
Assay [10] concerns NCI-H460. As to the kind of experiment: Upregulation of DMBA-induced CYP1B1 expression level in human NCI-H460 cells incubated for 24 hrs. The assay is classed as functional, cell-based. The settings on record: dose 1-10 µM.
For assay [11], the system named is NCI-H460. Briefly: Inhibition of cell migration in DMBA-induced human NCI-H460 cells at 5 uM incubated for 48 hrs by inverted microscopic analysis. Format: functional, cell-based.
Assay [12] relates to A549. Briefly: Inhibition of DMBA-induced CYP1B1 overexpression in human A549 cells assessed as supression of FAK pathway at 5 uM incubated for 24 hrs by densitometry analysis. The assay is classed as functional, cell-based.
Assay [13] relates to A549. As to the kind of experiment: Inhibition of DMBA-induced ERK1/2 overexpression in human taxol resistance A549 cells at 5 uM incubated for 24 hrs. Format: functional, cell-based.
Assay [14] has as its system NCI-H460. As to the kind of experiment: Inhibition of DMBA-induced CYP1B1 overexpression in human NCI-H460 cells assessed as effect on Snail level at 5 uM incubated for 24 hrs by densitometry analysis. The assay is classed as functional, cell-based.
In assay [15] the test system is NCI-H460. As to the kind of experiment: Inhibition of DMBA-induced CYP1B1 expression level in human NCI-H460 cells at 5 uM incubated for 24 hrs. The assay is classed as functional, cell-based.
For assay [16], the system named is NCI-H460. Briefly: Inhibition of DMBA-induced CYP1B1 overexpression in human NCI-H460 cells assessed as increase in Vimentin level incubated for 24 hrs by densitometry analysis. The settings on record: dose 5.0 µM. Format: functional, cell-based.
Assay [17] deals with A549. As to the kind of experiment: Downregulation of DMBA-induced CYP1B1 expression level in human A549 cells at 5 uM incubated for 24 hrs. The assay is classed as functional, cell-based.
The test system of assay [18] is A549. As to the kind of experiment: Inhibition of DMBA-induced CYP1B1 expression level in human A549 cells at 5 uM incubated for 24 hrs. The assay is classed as functional, cell-based.
Assay [19] deals with A549. As to the kind of experiment: Upregulation of DMBA-induced CYP1B1 expression level in human A549 cells incubated for 24 hrs. The assay is classed as functional, cell-based. The settings on record: dose 1-10 µM.
Assay [20] deals with A549. Briefly: Inhibition of DMBA-induced CYP1B1 overexpression in human A549 cells assessed as decrease in E-cadherin level incubated for 24 hrs by densitometry analysis. Format: functional, cell-based. The settings on record: dose 5.0 µM.
Assay [21] has as its system A549. Briefly: Inhibition of DMBA-induced cell migration in human A549 cells incubated for 48 hrs by inverted microscopic analysis. The assay is classed as functional, cell-based. The note with it: dose 5.0 µM.
In assay [22] the test system is NCI-H460. Briefly: Inhibition of DMBA-induced CYP1B1 overexpression in human NCI-H460 cells assessed as effect on MMP-9 level at 5 uM incubated for 24 hrs by densitometry analysis. The assay is classed as functional, cell-based.
Assay [23] has as its system A549. As to the kind of experiment: Inhibition of DMBA-induced CYP1B1 overexpression in human A549 cells assessed as effect on Snail level at 5 uM incubated for 24 hrs by densitometry analysis. Format: functional, cell-based.
Assay [24] relates to A549/TR. Briefly: Synergistic antiproliferative activity against human A549/Taxol cells assessed as increase in taxol by measuring combination index at 7.50 uM incubated for 72 hrs in presence of 0.25 uM taxol by MTT assay. Format: functional. The note with it: dose 7.5 µM.
Assay [25] has as its system A549/TR. Briefly: Synergistic antiproliferative activity against human A549/Taxol cells assessed as increase in taxol by measuring combination index at 15 uM incubated for 72 hrs in presence of 1 uM taxol by MTT assay. The assay is classed as functional.
For a further assay, the target named is T1, Cytochrome P450 1A1 (Homo sapiens, UniProt P04798).
T1 sequence (P04798 whole entry): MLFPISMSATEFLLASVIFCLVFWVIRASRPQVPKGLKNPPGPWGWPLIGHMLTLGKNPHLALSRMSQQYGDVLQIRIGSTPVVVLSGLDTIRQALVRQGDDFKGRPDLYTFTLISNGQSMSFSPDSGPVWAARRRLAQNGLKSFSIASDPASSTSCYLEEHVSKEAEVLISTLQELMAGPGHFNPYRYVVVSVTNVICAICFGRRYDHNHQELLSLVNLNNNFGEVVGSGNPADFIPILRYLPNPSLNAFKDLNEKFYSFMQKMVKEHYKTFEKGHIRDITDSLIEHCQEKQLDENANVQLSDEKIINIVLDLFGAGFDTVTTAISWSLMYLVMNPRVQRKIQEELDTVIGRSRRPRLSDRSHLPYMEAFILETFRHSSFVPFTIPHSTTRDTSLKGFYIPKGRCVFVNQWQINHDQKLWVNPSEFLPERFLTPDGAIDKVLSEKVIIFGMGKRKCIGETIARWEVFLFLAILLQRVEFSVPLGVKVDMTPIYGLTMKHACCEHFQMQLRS
Briefly: Inhibition of recombinant human CYP1A1 using 7-ethyl-0-resorufin as substrate incubated for 30 mins in presence of NADPH by EROD assay.

Assay [26] deals with A549/TR. As to the kind of experiment: Synergistic antiproliferative activity against human A549/Taxol cells assessed as increase in taxol by measuring combination index at 30 uM incubated for 72 hrs in presence of 1 uM taxol by MTT assay. Format: functional.
In assay [27] the test system is A549/TR. As to the kind of experiment: Synergistic antiproliferative activity against human A549/Taxol cells assessed as inhibition of cell growth at 3.75 to 30 uM incubated for 72 hrs in presence of taxol by MTT assay. Format: functional. Also noted: scale not given: the % may be the effect or the level left. The settings on record: dose 3.75-30 µM.
Assay [28] has as its system A549/TR. As to the kind of experiment: Inhibition of cell migration in human A549/Taxol cells incubated for 36 hrs. The settings on record: dose 2.5-10 µM. The assay is classed as functional, cell-based.
The next assay concerns A549/Taxol. Briefly: Inhibition of AKT pathway in human A549/Taxol cells assessed as decrease in phosphorylated AKT level at 2.5 to 5 uM incubated for 24 hrs. Format: cell-based. The settings on record: dose 2.5-5 µM.
The target of assay [29] is Proto-oncogene tyrosine-protein kinase Src (Homo sapiens) (UniProt P12931). As to the kind of experiment: Inhibition of SRC pathway in human A549/Taxol cells assessed as decrease in phosphorylated FAK level at 2.5 to 5 uM incubated for 24 hrs. Format: cell-based. The note with it: dose 2.5-5 µM.
Proto-oncogene tyrosine-protein kinase Src (Homo sapiens), sequence (P12931 2-536 limits assumed): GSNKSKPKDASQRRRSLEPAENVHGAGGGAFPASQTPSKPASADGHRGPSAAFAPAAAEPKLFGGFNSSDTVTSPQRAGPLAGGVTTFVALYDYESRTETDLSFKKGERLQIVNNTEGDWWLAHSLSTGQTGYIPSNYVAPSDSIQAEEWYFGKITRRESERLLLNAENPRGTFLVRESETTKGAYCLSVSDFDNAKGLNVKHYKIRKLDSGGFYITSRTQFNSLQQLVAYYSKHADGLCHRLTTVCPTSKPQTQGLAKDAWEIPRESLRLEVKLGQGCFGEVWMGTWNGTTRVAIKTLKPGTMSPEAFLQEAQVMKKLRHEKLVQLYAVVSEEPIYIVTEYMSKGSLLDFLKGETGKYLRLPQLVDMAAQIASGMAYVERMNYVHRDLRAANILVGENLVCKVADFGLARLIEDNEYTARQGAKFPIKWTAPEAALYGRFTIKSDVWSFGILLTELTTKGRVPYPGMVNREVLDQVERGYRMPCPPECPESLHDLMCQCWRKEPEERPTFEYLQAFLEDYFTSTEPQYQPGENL
Assay [30] deals with A549/TR. As to the kind of experiment: Synergistic antiproliferative activity against human A549/Taxol cells assessed as increase in taxol by measuring combination index at 15 uM incubated for 72 hrs in presence of 0.25 uM taxol by MTT assay. Format: functional.
Assay [31] concerns A549/TR. Briefly: Synergistic antiproliferative activity against human A549/Taxol cells assessed as increase in taxol by measuring combination index at 30 uM incubated for 72 hrs in presence of 0.50 uM taxol by MTT assay. The assay is classed as functional.

On to `COc1cc(/C=C/c2ccc(OC)cc2OC)cc(OC)c1`, for which the inhibition entry with NCI-H460 [1], with NCI-H460 [14], in the assay on NCI-H460 [22] and in the assay with A549 [23] was “inactive” throughout. For the same molecule, the Activity result in the assay on NCI-H460 [2], in the assay with A549 [5], in the assay with NCI-H460 [10] and with A549 [19] was “Dose-Dependent Effect” each time. Moreover, the inhibition result with A549 [3], in the assay with A549 [4], in the assay with A549 [7], in the assay on NCI-H460 [8], in the assay on NCI-H460 [9] and in the assay with NCI-H460 [16] was “Dose-Dependent Effect” in each case. The inhibition entry with A549 [20] and in the assay with A549 [21] was “Dose-Dependent Effect” each time. Further, the inhibition result in the assay with NCI-H460 [6], with NCI-H460 [11], with A549 [12], in the assay with A549 [13], in the assay on NCI-H460 [15] and in the assay with A549 [18] was “Active” throughout. Further, the outcome in the assay with A549 [17] was inactive.

For the molecule `COc1cc(Nc2nc(-c3nc(-c4ccccc4F)cs3)cs2)cc(OC)c1`, the CI in the assay with A549/TR [24] came to 0.47; in the assay with A549/TR [25], 0.71; in the assay on A549/TR [26], 0.02; with A549/TR [30], 0.3; with A549/TR [31], 0.2. Besides, on Cytochrome P450 1A1, the pIC50 is 6.46. Besides, the Activity with A549/TR [27] is 62%. The inhibition entry in the assay with A549/TR [28] is “Dose-Dependent Effect”. The inhibition entry (in the assay with A549/Taxol; in [29]) was “Active” throughout.

As usually defined, the pIC50 is −log10 of the IC50, conventionally taken in molar units.

The record behind these values is ChEMBL document CHEMBL5236635, “Structure-Based Drug Design and Synthesis of Novel N-Aryl-2,4-bithiazole-2-amine CYP1B1-Selective Inhibitors in Overcoming Taxol Resistance in A549 Cells” (J Med Chem, 2022).
